Laboratory results taken from patent publication US20070026090A1, “Treatment and prevention of inflammatory disease and mitochondrial dysfunction with high dose selenium” (priority 2003, published 2007).
Like-named read-outs stand apart in the source and are kept apart here.

Columns and labels:
[1] = Cell viability (PI exclusion, flow cytometry); format: cell-based, murine; conditions: mouse, J774.2 macrophages, 10 μM, 24 hour exposure
Procedure: (§1) Experiments were performed on cells at 60% confluence.
(§2) Determination of cell viability: Cell-membrane integrity was detected by flow cytometer (FACSort, Becton Dickenson and Co., San Jose, Calif. USA) as a measurement of cell viability. For this assay, the nonpermeant DNA-intercalating dye propidium iodide (PI), which is excluded by viable cells, was used. Fluorescence settings were excitation at 488 nm and emission at 575 nm. Data were collected from at least 10,000 cells.

[2] = test system: J774.2 macrophages; test: Cell viability (PI exclusion, flow cytometry); format: cell-based, murine; conditions: 10 μM, activated cells
Procedure: as §1, §2

[3] = test system: MnSOD; test: MnSOD transcription and expression (RTPCR, Western blot); format: cell-based, murine
Procedure: Cell culture: Murine J774.2 macrophages (kindly provided by Prof. Dov Zipori from the Weizmann Institute of Science) were grown in RPMI medium supplemented with 10% (w/v) fetal calf serum, penicillin (100 U/ml), streptomycin (100 μg/ml) and 1× glutamine at 37° C. in a humidified atmosphere consisting of 95% air and 5% CO2. Experiments were performed on cells at 60% confluence.
Western blots (Sp1, MnSOD, UCP2): Cells were grown in six-well tissue culture plates, treated with selenium for 72 h and activated with LPS and IFN-γ for 24 h. The wells were washed with PBS, scraped and centrifuged
(5 min. 2000 RPM), and lysed by addition of boiling hot lysis buffer (1% SDS, 1 mM sodium ortho-vanadate, 10 mM Tris pH 7.4) to the pellets. Protein content was measured (BIO RAD protein assay kit) and equalized. Sample buffer (containg SDS) was added and the samples were boiled. The samples were subjected to SDS-PAGE followed by western blot analysis. Separated proteins were transferred electrophoretically from the gel to a nitrocellulose membrane (Amersham International plc, Buckinghamshire, ENGLAND). The membrane was blocked in TBS (0.15 M NaCl/10 mM Tris/HCl, pH7.4) containing 5% (v/v) skimmed milk (Blotto), then incubated over night with primary antibodies at RT (diluted 1/2000 in blotto). After being washed six times in TBST [TBS containing 0.05% (v/v) Tween 20], the membrane was incubated for 2 h at room temperature with secondary antibody (diluted 1/5000 in blotto). Immunoreactive bands were detected with ECL western blotting detection reagents (Amersham Pharmacia Biotech, Buckingammshire England) and developed on film (Fuji super RX, Dusseldorf, Germany). […]
Right (antisense) 5′[…]-3′ (SEQ ID NO: 6) corresponding to nucleotides 622 to 640 of mouse mRNA region (GenBank Accession No. NM 013671). […] Actual PCR product was approximately 570 bp, measured on 1.25% agarose gel in TAE containing ethidium bromide.
PCR was performed with 28 cycles (25 cycles for GAPDH) of 30 seconds at 96° C., 30 seconds at 58° C. and 1 min at 72° C. RTPCR products were analyzed on 1.3% (w/v) agarose gels.

[4] = test system: Sp1; test: Sp1 binding in vitro, selenite added to nuclear extract (EMSA); set-up: species or system murine; conditions: 5 μM added to nuclear extract 5 minutes before (FIG. 13C)
Procedure: Nuclear extracts: Nuclear Extracts were prepared using a slight modification of the method of Dignam et al (23). Treated cells were washed with cold PBS, scraped and centrifuged. Hypotonic buffer (1 ml, 20 mM HEPES pH 7.0, 10 mM KCl, 1 mM mGCl2, 0.5 mM DTT, 0.1% Triton X-100, 20% glycerol, 2 mM PMSP, 1 mg/ml Aprotonin and Leupeptin) was added to the cell pellets, the pellets were disrupted by pipetting, and centrifuged 3000 RPM for 5 min. The pellets were re-suspended in 100 μl cold extraction buffer (20 mM HEPES pH 7.0, 10 mM KCl, 1 mM mGCl2, 0.5 mM DTT, 0.1% Triton X-100, 20% glycerol, 2 mM PMSF, 1 mg/ml Aprotonin and Leupeptin, 420 mM NaCl). The samples were rotated for 20 min at 4° C., centrifuged 15,000 RPM for 10 min, and supernatants collected. Protein content was measured using Bradford reagent. Samples were stored frozen at minus 70° C.
Electromobility shift assay (EMSA)—Gel shift assays were performed according to the gel shift assay protocol from Promega Corp. (San Luis Obispo, Calif.). A 22-mer double-stranded NF-κB consensus oligonucleotide 5′-[…]-3′ (SEQ ID NO:3), and Sp1 consensus oligonucleotide 5′-[…]-3(SEQ ID NO:4), were labeled with 32P. […]

[Se] [selenium]
cytotoxicity at 24 h, 10 μM ([1]; LPS + INFγ activated (FIG. 14A column c), read-out: decrease in viability, activated cells): ≤ 50%
cytotoxicity at 24 h, 10 μM ([1]; not activated, read-out: decrease in viability, control cells): 60%
cell survival, simultaneous selenium exposure and activation ([2]; from 75% without selenium (FIG. 14A)): 35%
cell survival, selenium following activation by 24 hours ([2]; from 75% without selenium (FIG. 14B)): 55%
lowest concentration effective in significantly reducing MnSOD transcripts and protein ([3]; 24 and 72 hours, resting J774.2 (FIG. 9A, 9B)): 0.5 µM
MnSOD expression, activated macrophages ([3]; exposure (72 hours) prior to activation, concentration dependent (FIG. 11)): decreased
Sp-1 binding in vitro [4]: directly inhibited
